{
  "source": "paper PMC12396409",
  "about": "“Screening and hit evaluation of a microbial metabolite library against the pathogenic Plasmodium falciparum and Toxoplasma gondii parasites” (International Journal for Parasitology: Drugs and Drug …, 2025)",
  "key": {"[1]": {"tested_on": "P. falciparum 3D7 parasites", "assay": "P. falciparum growth inhibition assay, 1-cycle (72 h treatment), SYBR DNA staining (library screen at 2 μg/mL and dose-response)", "format": "cell-based, Plasmodium falciparum", "settings": "% growth; for activity at 2 µg/mL: Plasmodium falciparum, 3D7"}, "[2]": {"tested_on": "P. falciparum 3D7 parasites", "assay": "P. falciparum growth inhibition assay, 2-cycle (120 h treatment), delayed-death screen and dose-response", "format": "cell-based, Plasmodium falciparum", "settings": "% growth; for activity at 2 µg/mL: Plasmodium falciparum, 3D7"}, "[3]": {"tested_on": "T. gondii RH strain (RH-Tub-eYFP) tachyzoites", "assay": "microbe, parasite or virus in culture", "format": "cell-based, Toxoplasma gondii", "settings": "72 h, % growth; for percent parasite growth at 2 µg/mL: Toxoplasma gondii"}, "[4]": {"settings": "library screen at 2 μg/mL, 72 h, replicate 1"}, "[5]": {"settings": "library screen at 2 μg/mL, 72 h, replicate 2"}, "[6]": {"settings": "library screen at 2 μg/mL, 120 h, replicate 1"}, "[7]": {"settings": "library screen at 2 μg/mL, 120 h, replicate 2"}, "[8]": {"settings": "library screen at 2 μg/mL, replicate 1"}, "[9]": {"settings": "library screen at 2 μg/mL, replicate 2"}, "[10]": {"settings": "P. falciparum, 72 h, parasite screen 2 μg/mL, replicate 1"}, "[11]": {"settings": "P. falciparum, 72 h, parasite screen 2 μg/mL, replicate 2"}, "[12]": {"settings": "P. falciparum, 120 h, parasite screen 2 μg/mL, replicate 1"}, "[13]": {"settings": "P. falciparum, 120 h, parasite screen 2 μg/mL, replicate 2"}, "[14]": {"settings": "T. gondii, parasite screen 2 μg/mL, replicate 1"}, "[15]": {"settings": "T. gondii, parasite screen 2 μg/mL, replicate 2"}},
  "note": "Read-outs that look alike come from different tables or passages of the source.",
  "data": [
    {"smiles": "COc1ccc2c3c([nH]c2c1)[C@H](C=C(C)C)N1C(=O)[C@@H]2CCCN2C(=O)[C@@H]1C3", "note": "[Fumitremorgin C]", "values": [
      {"measurement": "Pf_72h_%Growth_Rep1", "setting": "[1]; [4]", "result": 84.21, "unit": "%"},
      {"measurement": "Pf_72h_%Growth_Rep2", "setting": "[1]; [5]", "result": 83.65, "unit": "%"},
      {"measurement": "Pf_120h_%Growth_Rep1", "setting": "[2]; [6]", "result": 98.00, "unit": "%"},
      {"measurement": "Pf_120h_%Growth_Rep2", "setting": "[2]; [7]", "result": 92.77, "unit": "%"},
      {"measurement": "Tg_72h_%Growth_Rep1", "setting": "[3]; [8]", "result": 152.38, "unit": "%"},
      {"measurement": "Tg_72h_%Growth_Rep2", "setting": "[3]; [9]", "result": 98.57, "unit": "%"}
    ]},
    {"smiles": "Cc1cc(O)c(C)c(O)c1C(=O)O", "note": "[BIA-M1661]", "values": [
      {"measurement": "Pf_72h_%Growth_Rep1", "setting": "[1]; P. falciparum 3D7, 72 h, parasite screen at 2 μg/mL, replicate 1", "result": 76.46, "unit": "%"},
      {"measurement": "Pf_72h_%Growth_Rep2", "setting": "[1]; P. falciparum 3D7, 72 h, parasite screen at 2 μg/mL, replicate 2", "result": 83.29, "unit": "%"},
      {"measurement": "Pf_120h_%Growth_Rep1", "setting": "[2]; P. falciparum 3D7, 120 h, parasite screen at 2 μg/mL, replicate 1", "result": 67.73, "unit": "%"},
      {"measurement": "Pf_120h_%Growth_Rep2", "setting": "[2]; P. falciparum 3D7, 120 h, parasite screen at 2 μg/mL, replicate 2", "result": 68.25, "unit": "%"},
      {"measurement": "Tg_72h_%Growth_Rep1", "setting": "[3]; T. gondii, parasite screen at 2 μg/mL, replicate 1", "result": 153.94, "unit": "%"},
      {"measurement": "Tg_72h_%Growth_Rep2", "setting": "[3]; T. gondii, parasite screen at 2 μg/mL, replicate 2", "result": 85.55, "unit": "%"}
    ]},
    {"smiles": "COC(=O)c1cc(O)cc(OC)c1C(=O)c1c(O)cc(C)cc1O", "note": "[Sulochrin]", "values": [
      {"measurement": "activity at 2 µg/mL", "setting": "[1]; P. falciparum, 72 h, parasite screen 2 μg/mL, replicate 1, read-out: Pf_72h_%Growth_Rep1", "result": 88.9, "unit": "%"},
      {"measurement": "activity at 2 µg/mL", "setting": "[1]; P. falciparum, 72 h, parasite screen 2 μg/mL, replicate 2, read-out: Pf_72h_%Growth_Rep2", "result": 90.8, "unit": "%"},
      {"measurement": "activity at 2 µg/mL", "setting": "[2]; P. falciparum, 120 h, parasite screen 2 μg/mL, replicate 1, read-out: Pf_120h_%Growth_Rep1", "result": 93.2, "unit": "%"},
      {"measurement": "activity at 2 µg/mL", "setting": "[2]; P. falciparum, 120 h, parasite screen 2 μg/mL, replicate 2, read-out: Pf_120h_%Growth_Rep2", "result": 96.4, "unit": "%"},
      {"measurement": "percent parasite growth at 2 µg/mL", "setting": "[3]; T. gondii, parasite screen 2 μg/mL, replicate 1, read-out: Tg_72h_%Growth_Rep1", "result": 153, "unit": "%"},
      {"measurement": "percent parasite growth at 2 µg/mL", "setting": "[3]; T. gondii, parasite screen 2 μg/mL, replicate 2, read-out: Tg_72h_%Growth_Rep2", "result": 100, "unit": "%"}
    ]},
    {"smiles": "O=c1c2cccn2c(=O)c2cccn12", "note": "[Pyrocoll]", "values": [
      {"measurement": "Pf_72h_%Growth_Rep1", "setting": "[1]; [10]", "result": 84.60, "unit": "%"},
      {"measurement": "Pf_72h_%Growth_Rep2", "setting": "[1]; [11]", "result": 82.90, "unit": "%"},
      {"measurement": "Pf_120h_%Growth_Rep1", "setting": "[2]; [12]", "result": 85.16, "unit": "%"},
      {"measurement": "Pf_120h_%Growth_Rep2", "setting": "[2]; [13]", "result": 138.60, "unit": "%"},
      {"measurement": "Tg_72h_%Growth_Rep1", "setting": "[3]; [14]", "result": 94.37, "unit": "%"},
      {"measurement": "Tg_72h_%Growth_Rep2", "setting": "[3]; [15]", "result": 83.97, "unit": "%"}
    ]},
    {"smiles": "CCO[C@@H]1[C@@H](OC)[C@H](C)O[C@@H](O[C@H]2C[C@H]3[C@@H]4C=C5C(=O)[C@H](C)[C@@H](O[C@H]6CC[C@H](N(C)C)[C@@H](C)O6)CCC[C@H](CC)OC(=O)C[C@H]5[C@@H]4C=C(C)[C@@H]3C2)[C@@H]1OC", "note": "[spinosyn L, 3'-Ethoxy-]", "values": [
      {"measurement": "Pf_72h_%Growth_Rep1", "setting": "[1]; [10]", "result": 10.02, "unit": "%"},
      {"measurement": "Pf_72h_%Growth_Rep2", "setting": "[1]; [11]", "result": -2.72, "unit": "%"},
      {"measurement": "Pf_120h_%Growth_Rep1", "setting": "[2]; [12]", "result": 13.87, "unit": "%"},
      {"measurement": "Pf_120h_%Growth_Rep2", "setting": "[2]; [13]", "result": 7.84, "unit": "%"},
      {"measurement": "Tg_72h_%Growth_Rep1", "setting": "[3]; [14]", "result": 142.09, "unit": "%"},
      {"measurement": "Tg_72h_%Growth_Rep2", "setting": "[3]; [15]", "result": 79.71, "unit": "%"}
    ]},
    {"smiles": "CCCC(=O)OC1C(C)OC(OC2C(C)OC(OC3C(CC=O)CC(C)C(O)C=CC=CCC(C)OC(=O)CC(O)C3OC)C(O)C2N(C)C)CC1(C)O", "note": "(stereo not drawn) [BIA-L1357]", "values": [
      {"measurement": "Pf_72h_%Growth_Rep1", "setting": "[1]; P. falciparum 3D7, 72 h, library screen at 2 μg/mL, replicate 1", "result": 53.81, "unit": "%"},
      {"measurement": "Pf_72h_%Growth_Rep2", "setting": "[1]; P. falciparum 3D7, 72 h, library screen at 2 μg/mL, replicate 2", "result": 78.28, "unit": "%"},
      {"measurement": "Pf_120h_%Growth_Rep1", "setting": "[2]; P. falciparum 3D7, 120 h, library screen at 2 μg/mL, replicate 1", "result": 3.21, "unit": "%"},
      {"measurement": "Pf_120h_%Growth_Rep2", "setting": "[2]; P. falciparum 3D7, 120 h, library screen at 2 μg/mL, replicate 2", "result": 21.14, "unit": "%"},
      {"measurement": "Tg_72h_%Growth_Rep1", "setting": "[3]; T. gondii RH, library screen at 2 μg/mL, replicate 1", "result": 30.88, "unit": "%"},
      {"measurement": "Tg_72h_%Growth_Rep2", "setting": "[3]; T. gondii RH, library screen at 2 μg/mL, replicate 2", "result": 21.24, "unit": "%"}
    ]},
    {"smiles": "CC1(C)CCC[C@]2(C)[C@@H](CO)C(CO)=CC[C@@H]12", "note": "[Drimendiol]", "values": [
      {"measurement": "Pf_72h_%Growth_Rep1", "setting": "[1]; [4]", "result": 88.42, "unit": "%"},
      {"measurement": "Pf_72h_%Growth_Rep2", "setting": "[1]; [5]", "result": 85.66, "unit": "%"},
      {"measurement": "Pf_120h_%Growth_Rep1", "setting": "[2]; [6]", "result": 96.59, "unit": "%"},
      {"measurement": "Pf_120h_%Growth_Rep2", "setting": "[2]; [7]", "result": 92.13, "unit": "%"},
      {"measurement": "Tg_72h_%Growth_Rep1", "setting": "[3]; [8]", "result": 182.34, "unit": "%"},
      {"measurement": "Tg_72h_%Growth_Rep2", "setting": "[3]; [9]", "result": 100.93, "unit": "%"}
    ]},
    {"smiles": "CCC(=O)Nc1c2sscc-2n(C)c1=O", "note": "[Aureothricin]", "values": [
      {"measurement": "Pf_72h_%Growth_Rep1", "setting": "[1]; [4]", "result": 7.64, "unit": "%"},
      {"measurement": "Pf_72h_%Growth_Rep2", "setting": "[1]; [5]", "result": 5.69, "unit": "%"},
      {"measurement": "Pf_120h_%Growth_Rep1", "setting": "[2]; [6]", "result": 11.34, "unit": "%"},
      {"measurement": "Pf_120h_%Growth_Rep2", "setting": "[2]; [7]", "result": -0.06, "unit": "%"},
      {"measurement": "Tg_72h_%Growth_Rep1", "setting": "[3]; [8]", "result": 1.55, "unit": "%"},
      {"measurement": "Tg_72h_%Growth_Rep2", "setting": "[3]; [9]", "result": 1.43, "unit": "%"}
    ]},
    {"smiles": "COc1cc(C)c(C(=O)Oc2cc(C)c(C(=O)O)c(O)c2C)c(OC)c1C", "note": "[Diffractaic acid]", "values": [
      {"measurement": "activity at 2 µg/mL", "setting": "[1]; library screen at 2 μg/mL, 72 h, replicate 1, read-out: Pf_72h_%Growth_Rep1", "result": 80.1, "unit": "%"},
      {"measurement": "activity at 2 µg/mL", "setting": "[1]; library screen at 2 μg/mL, 72 h, replicate 2, read-out: Pf_72h_%Growth_Rep2", "result": 79.9, "unit": "%"},
      {"measurement": "activity at 2 µg/mL", "setting": "[2]; library screen at 2 μg/mL, 120 h, replicate 1, read-out: Pf_120h_%Growth_Rep1", "result": 91.2, "unit": "%"},
      {"measurement": "activity at 2 µg/mL", "setting": "[2]; library screen at 2 μg/mL, 120 h, replicate 2, read-out: Pf_120h_%Growth_Rep2", "result": 81.2, "unit": "%"},
      {"measurement": "percent parasite growth at 2 µg/mL", "setting": "[3]; library screen at 2 μg/mL, replicate 1, read-out: Tg_72h_%Growth_Rep1", "result": 133, "unit": "%"},
      {"measurement": "percent parasite growth at 2 µg/mL", "setting": "[3]; library screen at 2 μg/mL, replicate 2, read-out: Tg_72h_%Growth_Rep2", "result": 97.5, "unit": "%"}
    ]}
  ]
}
